Consider 57 compounds from patent publication US20160002247A1, “8-SUBSTITUTED IMIDAZOPYRIMIDINONE DERIVATIVE HAVING AUTOTAXIN INHIBITORY ACTIVITY” (THE UNIVERSITY OF TOKYO, priority 2013, published 2016).

In one assay the target is T1, Human autotaxin enzyme (Homo sapiens, UniProt Q13822).
T1 construct: purchased R&D System
The assay can be described thus: Evaluation of autotaxin inhibitor, Method C (Test Example 3): 18:0 Lyso PC, choline assay, Resorufin fluorescence. It is filed as biochemical. Conditions: Assay Method C (Test Example 3), human autotaxin, 18:0 Lyso PC substrate; read-out: Inhibitory Activity (autotaxin enzyme inhibitory activity, IC50 class). The method in brief: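 Human autotaxin in Tris-HCl pH 7.5, 150 mM NaCl, 5 mM MgCl2, 0.05% Triton X-100 reacted 2 h at room temperature with 18:0 Lyso PC (200 μM solution added). Released choline detected via choline oxidase/peroxidase/Amplex-type reagent, resorufin fluorescence (ex 531/em 598 nm); inhibition vs no-compound and no-enzyme controls, concentration-response curve.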
In the case of `CCCCCn1c(N2CCC[C@H]2C(=O)N[C@H](C(=O)O)c2ccccc2)cc(=O)n2cc(-c3ccc(Cl)cc3)nc12` [Compound 732], the IC50 is below 10 nM.
The same measure, in the same setting: the result for `CCCCCn1c(N2CCC[C@H]2C(=O)N[C@@H](CC(C)C)C(=O)O)cc(=O)n2cc(-c3ccc(Cl)cc3)nc12` [Compound 733] reads below 10 nM; that for `CCCCCn1c(N2CCC[C@H]2C(=O)N[C@@H](CC2CCCCC2)C(=O)O)cc(=O)n2cc(-c3ccc(Cl)cc3)nc12` [Compound 734], below 10 nM; that for `CCCCCn1c(N2CCC[C@H]2C(=O)N[C@@H](CCc2ccccc2)C(=O)O)cc(=O)n2cc(-c3ccc(Cl)cc3)nc12` [Compound 735], below 10 nM.
For the compound `CCCCCn1c(N2CCC[C@H]2C(=O)N(CC(=O)O)Cc2ccccc2)cc(=O)n2cc(-c3ccc(Cl)cc3)nc12` [Compound 736], the IC50 was below 10 nM.
As for `CCCCCn1c(N2CCC[C@H]2C(=O)NC(C)C(=O)O)cc(=O)n2cc(-c3ccc(Cl)cc3)nc12` (stereo partly drawn) [Compound 737], the IC50 is below 10 nM.
For `CCCCCn1c(N2CCC[C@H]2C(=O)N[C@H](CCCC)C(=O)O)cc(=O)n2cc(-c3ccc(Cl)cc3)nc12` [Compound 738], the IC50 was below 10 nM.
`CCCCCn1c(N2CCC[C@H]2C(=O)N[C@H](CC)C(=O)O)cc(=O)n2cc(-c3ccc(Cl)cc3)nc12` [Compound 739]: the IC50 was below 10 nM.
Still for that read-out and setting: in the case of `CCCCCn1c(N2CCC[C@H]2C(=O)N[C@@H](Cc2ccccc2)C(=O)O)cc(=O)n2cc(-c3ccc(Cl)cc3)nc12` [Compound 740] it was below 10 nM; in that of `O=C(O)[C@H](Cc1ccccc1)NC(=O)[C@@H]1CCCN1c1cc(=O)n2cc(-c3ccc(Cl)cc3)nc2n1Cc1ccccc1` [Compound 743], below 10 nM; in that of `O=C(O)CNC(=O)[C@@H]1CCCN1c1cc(=O)n2cc(-c3ccc(Cl)cc3)nc2n1Cc1ccccc1` [Compound 744], 10 to 100 nM.
Turning to `O=C(O)[C@H](CCc1ccccc1)NC(=O)[C@@H]1CCCN1c1cc(=O)n2cc(-c3ccc(Cl)cc3)nc2n1Cc1ccccc1` [Compound 745], the IC50 was below 10 nM.
Take `CC(C)(C)[C@H](NC(=O)[C@@H]1CCCN1c1cc(=O)n2cc(-c3ccc(Cl)cc3)nc2n1Cc1ccccc1)C(=O)O` [Compound 746]: the IC50 was below 10 nM.
Same read-out and setting: the result for `CC(C)(NC(=O)[C@@H]1CCCN1c1cc(=O)n2cc(-c3ccc(Cl)cc3)nc2n1Cc1ccccc1)C(=O)O` [Compound 747] reads 10 to 100 nM; that for `C[C@H](NC(=O)[C@@H]1CCCN1c1cc(=O)n2cc(-c3ccc(Cl)cc3)nc2n1Cc1ccccc1)C(=O)O` [Compound 748], below 10 nM; that for `O=C(O)[C@H](Cc1ccccc1)NC(=O)[C@@H]1C[C@@H](O)CN1c1cc(=O)n2cc(-c3ccc(Cl)cc3)nc2n1Cc1ccccc1` [Compound 749], below 10 nM.
Take `O=C(O)CNC(=O)[C@@H]1C[C@@H](O)CN1c1cc(=O)n2cc(-c3ccc(Cl)cc3)nc2n1Cc1ccccc1` [Compound 750]: the IC50 is 10 to 100 nM.
Same read-out and setting: the result for `O=C(O)[C@H](CCc1ccccc1)NC(=O)[C@@H]1C[C@@H](O)CN1c1cc(=O)n2cc(-c3ccc(Cl)cc3)nc2n1Cc1ccccc1` [Compound 751] reads below 10 nM.
For `CC(C)(C)[C@H](NC(=O)[C@@H]1C[C@@H](O)CN1c1cc(=O)n2cc(-c3ccc(Cl)cc3)nc2n1Cc1ccccc1)C(=O)O` [Compound 752], the IC50 was below 10 nM.
For the compound `CC(C)(NC(=O)[C@@H]1C[C@@H](O)CN1c1cc(=O)n2cc(-c3ccc(Cl)cc3)nc2n1Cc1ccccc1)C(=O)O` [Compound 753], the IC50 is below 10 nM.
On the same count and under the same terms, in the case of `C[C@H](NC(=O)[C@@H]1C[C@@H](O)CN1c1cc(=O)n2cc(-c3ccc(Cl)cc3)nc2n1Cc1ccccc1)C(=O)O` [Compound 754] it was below 10 nM.
Still for that read-out and setting: the result for `CCn1c(N2CCC[C@H]2C(=O)N[C@@H](Cc2ccccc2)C(=O)O)cc(=O)n2cc(-c3ccc(Cl)cc3)nc12` [Compound 755] reads 100 to 1000 nM.
Still for that read-out and setting: the result for `CCn1c(N2CCC[C@H]2C(=O)NCC(=O)O)cc(=O)n2cc(-c3ccc(Cl)cc3)nc12` [Compound 756] reads 100 to 1000 nM.
For the compound `CCn1c(N2CCC[C@H]2C(=O)N[C@@H](CCc2ccccc2)C(=O)O)cc(=O)n2cc(-c3ccc(Cl)cc3)nc12` [Compound 757], the IC50 was 10 to 100 nM.
Still for that read-out and setting: the result for `CCn1c(N2CCC[C@H]2C(=O)N[C@H](C(=O)O)C(C)(C)C)cc(=O)n2cc(-c3ccc(Cl)cc3)nc12` [Compound 758] reads 10 to 100 nM; that for `CCn1c(N2CCC[C@H]2C(=O)NC(C)(C)C(=O)O)cc(=O)n2cc(-c3ccc(Cl)cc3)nc12` [Compound 759], 10 to 100 nM; that for `CCn1c(N2CCC[C@H]2C(=O)N[C@@H](C)C(=O)O)cc(=O)n2cc(-c3ccc(Cl)cc3)nc12` [Compound 760], 10 to 100 nM.
Turning to `CCn1c(N2C[C@H](O)C[C@H]2C(=O)N[C@@H](Cc2ccccc2)C(=O)O)cc(=O)n2cc(-c3ccc(Cl)cc3)nc12` [Compound 761], the IC50 lay in the range of 100 to 1000 nM.
Still for that read-out and setting: the result for `CCn1c(N2C[C@H](O)C[C@H]2C(=O)NCC(=O)O)cc(=O)n2cc(-c3ccc(Cl)cc3)nc12` [Compound 762] reads above 1000 nM; that for `CCn1c(N2C[C@H](O)C[C@H]2C(=O)N[C@@H](CCc2ccccc2)C(=O)O)cc(=O)n2cc(-c3ccc(Cl)cc3)nc12` [Compound 763], 10 to 100 nM.
On to `CCn1c(N2C[C@H](O)C[C@H]2C(=O)N[C@H](C(=O)O)C(C)(C)C)cc(=O)n2cc(-c3ccc(Cl)cc3)nc12` [Compound 764], for which the IC50 is 10 to 100 nM.
Same read-out and setting: in the case of `CCn1c(N2C[C@H](O)C[C@H]2C(=O)NC(C)(C)C(=O)O)cc(=O)n2cc(-c3ccc(Cl)cc3)nc12` [Compound 765] it was 100 to 1000 nM; in that of `CCn1c(N2C[C@H](O)C[C@H]2C(=O)N[C@@H](C)C(=O)O)cc(=O)n2cc(-c3ccc(Cl)cc3)nc12` [Compound 766], 10 to 100 nM.
On the same count and under the same terms, the result for `Cn1c(N2CCC[C@H]2C(=O)N[C@@H](Cc2ccccc2)C(=O)O)cc(=O)n2cc(-c3ccc(Cl)cc3)nc12` [Compound 767] reads 100 to 1000 nM.
Still for that read-out and setting: in the case of `Cn1c(N2CCC[C@H]2C(=O)NCC(=O)O)cc(=O)n2cc(-c3ccc(Cl)cc3)nc12` [Compound 768] it was above 1000 nM; in that of `Cn1c(N2CCC[C@H]2C(=O)N[C@@H](CCc2ccccc2)C(=O)O)cc(=O)n2cc(-c3ccc(Cl)cc3)nc12` [Compound 769], 10 to 100 nM; in that of `Cn1c(N2CCC[C@H]2C(=O)N[C@H](C(=O)O)C(C)(C)C)cc(=O)n2cc(-c3ccc(Cl)cc3)nc12` [Compound 770], 100 to 1000 nM.
With `C[C@H](NC(=O)[C@@H]1CCCN1c1cc(=O)n2cc(-c3ccc(Cl)cc3)nc2n1C)C(=O)O` [Compound 771], the IC50 lay within 100 to 1000 nM.
`Cn1c(N2C[C@H](O)C[C@H]2C(=O)N[C@@H](Cc2ccccc2)C(=O)O)cc(=O)n2cc(-c3ccc(Cl)cc3)nc12` [Compound 772]: the IC50 was in the range of 100 to 1000 nM.
The same measure, in the same setting: the result for `Cn1c(N2C[C@H](O)C[C@H]2C(=O)NCC(=O)O)cc(=O)n2cc(-c3ccc(Cl)cc3)nc12` [Compound 773] reads above 1000 nM; that for `Cn1c(N2C[C@H](O)C[C@H]2C(=O)N[C@H](C(=O)O)C(C)(C)C)cc(=O)n2cc(-c3ccc(Cl)cc3)nc12` [Compound 774], 10 to 100 nM; that for `CCCCCn1c(N2C[C@@H](O)C[C@H]2C(=O)N[C@@H](Cc2ccccc2)C(=O)O)cc(=O)n2cc(-c3ccc(Cl)cc3)nc12` [Compound 775], below 10 nM.
Take `CCCCCn1c(N2C[C@@H](O)C[C@H]2C(=O)NCC(=O)O)cc(=O)n2cc(-c3ccc(Cl)cc3)nc12` [Compound 776]: the IC50 was below 10 nM.
As to `CCCCCn1c(N2C[C@@H](O)C[C@H]2C(=O)N[C@@H](CCc2ccccc2)C(=O)O)cc(=O)n2cc(-c3ccc(Cl)cc3)nc12` [Compound 777], the IC50 was below 10 nM.
On to `CCCCCn1c(N2C[C@@H](O)C[C@H]2C(=O)N[C@H](C(=O)O)C(C)(C)C)cc(=O)n2cc(-c3ccc(Cl)cc3)nc12` [Compound 778], for which the IC50 is below 10 nM.
For the compound `CCCCCn1c(N2C[C@@H](O)C[C@H]2C(=O)N[C@@H](C)C(=O)O)cc(=O)n2cc(-c3ccc(Cl)cc3)nc12` [Compound 779], the IC50 is below 10 nM.

Staying with this assay, now noted: Assay Method C, human autotaxin, 18:0 Lyso PC substrate; read-out: Inhibitory Activity.
Take `Cn1c(N2CCC[C@H]2C(=O)NC(C)(C)C(=O)O)cc(=O)n2cc(-c3ccc(Cl)cc3)nc12` [Compound 780]: the IC50 was 100 to 1000 nM.
On to `Cn1c(N2C[C@H](O)C[C@H]2C(=O)NC(C)(C)C(=O)O)cc(=O)n2cc(-c3ccc(Cl)cc3)nc12` [Compound 781], for which the IC50 was above 1000 nM.
The same measure, in the same setting: the result for `C[C@H](NC(=O)[C@@H]1C[C@@H](O)CN1c1cc(=O)n2cc(-c3ccc(Cl)cc3)nc2n1C)C(=O)O` [Compound 782] reads 100 to 1000 nM.
Take `CCCCCn1c(N2CCC[C@H]2C(=O)Nc2nn[nH]n2)cc(=O)n2cc(-c3ccc(Cl)cc3)nc12` [Compound 783]: the IC50 lay within 10 to 100 nM.
Regarding `CCCCCn1c(N2CCC[C@H]2C(=O)Nc2ccc(-c3nn[nH]n3)cc2)cc(=O)n2cc(-c3ccc(Cl)cc3)nc12` [Compound 784], the IC50 lay within 100 to 1000 nM.
The same measure, in the same setting: the result for `CCCCCn1c(N2CCC[C@H]2C(=O)NCC(O)C(F)(F)F)cc(=O)n2cc(-c3ccc(Cl)cc3)nc12` (stereo partly drawn) [Compound 785] reads 100 to 1000 nM.
Take `CCCCCn1c(N2CCC[C@H]2C(=O)NCC(O)CC(F)(F)F)cc(=O)n2cc(-c3ccc(Cl)cc3)nc12` (stereo partly drawn) [Compound 786]: the IC50 is 100 to 1000 nM.
The same measure, in the same setting: the result for `CCCCCn1c(N2CCC[C@H]2C(=O)Nc2cccc(-c3nn[nH]n3)c2)cc(=O)n2cc(-c3ccc(Cl)cc3)nc12` [Compound 787] reads 100 to 1000 nM.
Same read-out and setting: the result for `CCCCCn1c(N2CCC[C@H]2C(=O)Nc2cc(O)[nH]n2)cc(=O)n2cc(-c3ccc(Cl)cc3)nc12` [Compound 788] reads above 1000 nM; that for `CCCCCn1c(N2CCC[C@H]2C(=O)NC(C(N)=O)c2ccccc2)cc(=O)n2cc(-c3ccc(Cl)cc3)nc12` (stereo partly drawn) [Compound 789], 10 to 100 nM.
On to `CCCCCn1c(N2CCC[C@H]2C(=O)NCc2c[nH]nn2)cc(=O)n2cc(-c3ccc(Cl)cc3)nc12` [Compound 790], for which the IC50 is below 10 nM.
